Test [1] relates to E. faecalis ATCC 29212. Put plainly: microbe, parasite or virus in culture. The settings on record: Enterococcus faecalis, ATCC29212.
Test [2] has as its system Listeria monocytogenes R2-583. As to the kind of experiment: microbe, parasite or virus in culture. The settings on record: R2583.
Test [3] relates to E. faecium ATCC 700221. As to the kind of experiment: microbe, parasite or virus in culture. The settings on record: Enterococcus faecium, ATCC700221. Format: cell-based. The text has this: (§1) The same MIC assay as in Example 6 was used to determine the antimicrobial susceptibility of Compound A, L-form (FIG. 15), and several variants. One variant was Compound A, D-form, with D-Lysine at position 7. Compound B is a variant in the fatty acid chain, with a fatty acid chain composition of C15H29O, and having D-Lys at position 7. Compound C is a variant in the fatty acid chain with a fatty acid chain composition of C11H21O, and having D-Lys at position 7. Variant D is a sequence variant with Phe at position 6 of the cyclic peptide, and having D-Lys at position 7. All variants were chemically synthesized.

In test [4] the test system is E. faecium BAA-2318. Put plainly: microbe, parasite or virus in culture. The format is cell-based. The settings on record: Enterococcus faecium, BAA2318.
From the text: as §1

For test [5], the system named is E. faecium ATCC 2320. As to the kind of experiment: microbe, parasite or virus in culture. The settings on record: Enterococcus faecium, ATCC2320. Format: cell-based.
From the text: as §1

Test [6] has as its system S. aureus ATCC25923. As to the kind of experiment: microbe, parasite or virus in culture. The note with it: Staphylococcus aureus.
Test [7] deals with E. faecalis BAA-2365. As to the kind of experiment: microbe, parasite or virus in culture. Format: cell-based, Enterococcus faecalis. The note with it: Enterococcus faecalis, BAA2365.
From the text: as §1

The subject of test [8] is E. faecalis ATCC 51575. As to the kind of experiment: microbe, parasite or virus in culture. The settings on record: Enterococcus faecalis, ATCC51575. The format is cell-based, Enterococcus faecalis.
From the text: as §1

Test [9] has as its system S. aureus 4. As to the kind of experiment: microbe, parasite or virus in culture. The format is cell-based, Staphylococcus aureus.
From the text: as §1

In test [10] the test system is S. aureus 8. As to the kind of experiment: microbe, parasite or virus in culture. The format is cell-based, Staphylococcus aureus.
From the text: as §1

The test system of test [11] is S. aureus 19. Put plainly: microbe, parasite or virus in culture. The format is cell-based, Staphylococcus aureus.
From the text: as §1

The test system of test [12] is S. aureus 12. Put plainly: microbe, parasite or virus in culture. Format: cell-based, Staphylococcus aureus.
From the text: as §1

The subject of test [13] is S. aureus 10. Put plainly: microbe, parasite or virus in culture. The format is cell-based, Staphylococcus aureus.
From the text: as §1

In test [14] the test system is S. aureus 2. Put plainly: microbe, parasite or virus in culture. The format is cell-based, Staphylococcus aureus.
From the text: as §1

The test system of test [15] is S. aureus 14. Put plainly: microbe, parasite or virus in culture. The format is cell-based, Staphylococcus aureus.
From the text: as §1

For test [16], the system named is S. aureus 6. Put plainly: microbe, parasite or virus in culture. The format is cell-based, Staphylococcus aureus.
From the text: as §1

The test system of test [17] is S. aureus ATCC 29213. Put plainly: microbe, parasite or virus in culture. The note with it: Staphylococcus aureus, ATCC29213.
The test system of test [18] is Enterobacter cloacae SBJ-7612. The settings on record: Enterobacter cloacae SBJ-7612 (clinical isolate).
The test system of test [19] is Klebsiella pneumoniae SBJ-9483. The note with it: Klebsiella pneumoniae SBJ-9483 (clinical isolate).
The subject of test [20] is Enterobacter cloacae SBJ-9395. The format is cell-based.
From the text: as §1

Test [21] has as its system Serratia marcescens SBJ-8283. Format: cell-based.
From the text: as §1

In test [22] the test system is Serratia marcescens SAMN 04276914. The format is cell-based. The settings on record: Serratia marcescens SAMN 04276914.
From the text: as §1

Test [23] relates to Serratia marcescens SBJ-9047. The format is cell-based.
From the text: as §1

Test [24] concerns Serratia marcescens SAMN04022954. Format: cell-based. The note with it: Serratia marcescens SAMN04022954.
From the text: as §1

Test [25] relates to Serratia marcescens SAMN 04276915. The format is cell-based. The note with it: Serratia marcescens SAMN 04276915.
From the text: as §1

In test [26] the test system is Salmonella enterica serovar Montevideo strain 29N. As to the kind of experiment: Spot-on-lawn bioactivity assay (zone of inhibition). Format: cell-based. The settings on record: 10 μL spotted on lawn of 10^6 cells of S. Montevideo strain 29N, 24 hour incubation.
The subject of test [27] is Klebsiella pneumoniae SBJ-9388. The note with it: Klebsiella pneumoniae SBJ-9388 (clinical isolate).
For test [28], the system named is Enterobacter cloacae SBJ-9222. The settings on record: Enterobacter cloacae SBJ-9222 (clinical isolate).
The subject of test [29] is E. coli ATCC 25853. The note with it: E. coli ATCC 25853.
Test [30] relates to Salmonella Newport #17. The note with it: Salmonella Newport #17.
Test [31] has as its system E. coli O157: H7 EDL933.
Test [32] relates to P. aeruginosa ATCC-27853. The settings on record: P. aeruginosa ATCC-27853.
Test [33] relates to Enterobacter sakazakii E784. The settings on record: Enterobacter sakazakii E784.
Test [34] deals with Klebsiella pneumoniae SBJ-9149. The settings on record: Klebsiella pneumoniae SBJ-9149 (clinical isolate).

Values after ≈ are worked out from the molar mass of the structure shown. Like-named read-outs stand apart in the source and are kept apart here.

In the case of `CN[C@H](CC(C)C)C(=O)N[C@H]1C(=O)N[C@@H](CC(N)=O)C(=O)N[C@H]2C(=O)N[C@H]3C(=O)N[C@H](C(=O)N[C@H](C(=O)O)c4cc(O)cc(O)c4-c4cc3ccc4O)[C@H](O)c3ccc(c(Cl)c3)Oc3cc2cc(c3O[C@@H]2O[C@H](CO)[C@@H](O)[C@H](O)[C@H]2O[C@H]2C[C@](C)(N)[C@H](O)[C@H](C)O2)Oc2ccc(cc2Cl)[C@H]1O` [Vancomycin, vancomycin, reference compound], the MIC in [1] was 2 µg/mL (≈ 1.38 µM); in test [2] it was 1 µg/mL (≈ 0.69 µM); in test [3] it was no less than 256 µg/mL; in [4], no less than 256 µg/mL; in test [5], no less than 256 µg/mL; in test [6], 1 µg/mL (≈ 0.69 µM). The MIC in test [7] was no less than 256 µg/mL; in test [8], no less than 256 µg/mL; in test [9] (S. aureus 4 (MRSA, clinical isolate)), 1 µg/mL (≈ 0.69 µM); in test [9] (Staphylococcus aureus, MRSA) it was 1 µg/mL (≈ 0.69 µM); in test [10] (S. aureus 8 (MRSA, clinical isolate)) it was 1 µg/mL (≈ 0.69 µM); in test [10] (Staphylococcus aureus, MRSA), 1 µg/mL (≈ 0.69 µM). Besides, the MIC is 1 µg/mL (≈ 0.69 µM) in [11] (S. aureus 19 (MRSA, clinical isolate)); 1 µg/mL (≈ 0.69 µM) in test [11] (Staphylococcus aureus, MRSA); 1 µg/mL (≈ 0.69 µM) in test [12] (S. aureus 12 (MRSA, clinical isolate)); 1 µg/mL (≈ 0.69 µM) in [12] (Staphylococcus aureus, MRSA); 1 µg/mL (≈ 0.69 µM) in test [13] (S. aureus 10 (MRSA, clinical isolate)); 1 µg/mL (≈ 0.69 µM) in [13] (Staphylococcus aureus, MRSA). For the same compound, the MIC in [14] (S. aureus 2 (MRSA, clinical isolate)) is 1 µg/mL (≈ 0.69 µM); in [14] (Staphylococcus aureus, MRSA), 1 µg/mL (≈ 0.69 µM); in [15] (S. aureus 14 (MRSA, clinical isolate)), 1 µg/mL (≈ 0.69 µM); in [15] (Staphylococcus aureus, MRSA), 1 µg/mL (≈ 0.69 µM); in [16] (S. aureus 6 (MRSA, clinical isolate)), 1 µg/mL (≈ 0.69 µM); in test [16] (Staphylococcus aureus, MRSA), 1 µg/mL (≈ 0.69 µM). In [17], this compound showed an MIC of 1 µg/mL (≈ 0.69 µM).
Regarding Polymyxin B [reference compound], the MIC was 1 µg/mL in test [18]; 0.5 µg/mL in [19]; greater than 128 µg/mL in [20] (Enterobacter cloacae SBJ-9395); greater than 128 µg/mL in test [20] (Enterobacter cloacae SBJ-9395 (CRE, clinical isolate)); greater than 128 µg/mL in test [21] (Serratia marcescens SBJ-8283); greater than 128 µg/mL in test [21] (Serratia marcescens SBJ-8283 (CRE, clinical isolate)). The MIC in test [22] was no less than 256 µg/mL; in [23] (Serratia marcescens SBJ-9047), greater than 128 µg/mL; in [23] (Serratia marcescens SBJ-9047 (CRE, clinical isolate)) it was greater than 128 µg/mL; in [24], no less than 256 µg/mL; in test [25], no less than 256 µg/mL; in test [27], 0.5 µg/mL. In addition, the MIC in [28] amounted to 1 µg/mL; in test [29], 0.5 µg/mL; in test [30] it was 1 µg/mL; in test [31] it was 0.5 µg/mL; in [32], 1 µg/mL; in [33] it was 0.5 µg/mL. Moreover, in test [34], the MIC amounted to 0.5 µg/mL. For the same compound, the “minimum inhibitory concentration to show clear ZI” value in [26] came out at 4 µg/mL.

These data come from patent US10906940B2, “Antimicrobial peptides, pharmaceutical compositions, and methods of use thereof” (priority 2014, dated 2021).
